The results in this text go back to ChEMBL document CHEMBL5725520, “Benzoisothiazole compounds and methods of treating schizophrenia” (2017).

As a reminder, the Ki is a measure of affinity in units of concentration, obtained from inhibition or displacement.

Assay [1] has as its target T1, 5-hydroxytryptamine receptor 1A (Homo sapiens, UniProt P08908).
T1 sequence (P08908 whole entry): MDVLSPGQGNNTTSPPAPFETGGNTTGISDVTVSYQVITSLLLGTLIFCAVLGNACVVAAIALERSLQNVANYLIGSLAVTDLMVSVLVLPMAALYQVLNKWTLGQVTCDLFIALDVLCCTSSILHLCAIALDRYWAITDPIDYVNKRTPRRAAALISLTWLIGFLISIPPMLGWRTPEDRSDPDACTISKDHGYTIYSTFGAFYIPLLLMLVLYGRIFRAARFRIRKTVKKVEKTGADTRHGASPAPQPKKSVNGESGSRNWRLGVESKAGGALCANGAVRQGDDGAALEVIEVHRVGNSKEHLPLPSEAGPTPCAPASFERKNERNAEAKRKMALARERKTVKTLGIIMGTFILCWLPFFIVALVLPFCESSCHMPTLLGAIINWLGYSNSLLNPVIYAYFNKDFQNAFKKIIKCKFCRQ
The assay can be described thus: 5-HT1A Receptor Binding Test: 1. Experimental Materials:The isotopic ligand of 5-H1A receptor […] (purchased from PE Corporation), (+)5-hydroxytryptamine (purchased from Sigma Corporation), GF/B glassfiber filter (purchased from Whatman Corporation), fat-soluble scintillation fluid: PPO and POPOP (purchased from Shanghai No. 1 Reagent Factory), toluene (purchased from Sinopharm Chemical Reagent Co., Ltd), and Tris (imported and subpackaged).Cells: HEK-293 cells stably expressing 5-HT1A receptors as obtained by gene recombination are cultured for 3-5 days in cell culture medium DMEM supplemented with 10% serum. […] Total binding tube […] 20 μL D1 Binding Buffer 20 μL Cells 160 μL Non-specific tube […] 20 μL 5-HT(10−4) 20 μL Cells 160 μL Tube with the […] 20 μL compound to be tested The compound to be tested 20 μL Cells 160 μL The components are mixed to homogeneity, and then the above tubes are transferred to water bath at 30° C. (1 h), removed into ice bath immediately, and suction filtered on Harvest (with ice cold Tris eluate for 5 times).

The target of the next assay is D(2) dopamine receptor (Homo sapiens, UniProt P14416). The assay can be described thus: Receptor Binding Test: 1. Experimental Materials:(1) D2 receptor Cell Transfection:This experiment utilizes the plasmid vector containing the gene of D2 receptor protein for transfecting HEK293 cells by calcium phosphate transfection method.
Assay [2] is described as follows: Dopamine D3 Receptor Binding Test: The experiment is carried out by the method according to Journal of Pharmacology and Experimental Therapeutics 2010, 333(1): 328. With [3H]methyl-spiperone (0.3 nM) as the ligand and (+)-butaclamol (10 LM) for determining non-specific binding, binding tests are carried out on human recombinant D3 receptor (expressed in CHO cells). The assay is classed as cell-based.

Sequence of D(2) dopamine receptor (P14416 whole entry): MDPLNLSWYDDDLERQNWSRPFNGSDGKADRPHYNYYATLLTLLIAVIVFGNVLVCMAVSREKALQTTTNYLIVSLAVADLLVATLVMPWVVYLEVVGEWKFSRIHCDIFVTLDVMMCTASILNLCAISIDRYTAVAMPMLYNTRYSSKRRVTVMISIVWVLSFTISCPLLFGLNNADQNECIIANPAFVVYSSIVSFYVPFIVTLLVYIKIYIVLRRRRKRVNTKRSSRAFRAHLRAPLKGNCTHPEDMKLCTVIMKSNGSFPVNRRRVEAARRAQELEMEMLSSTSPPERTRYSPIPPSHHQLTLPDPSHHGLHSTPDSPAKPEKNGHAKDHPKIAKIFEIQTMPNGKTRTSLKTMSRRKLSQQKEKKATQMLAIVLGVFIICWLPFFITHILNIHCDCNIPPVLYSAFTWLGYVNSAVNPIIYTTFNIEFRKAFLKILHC

Take `CCOC(=O)N[C@H]1CC[C@@H](CCN2CCN(c3nsc4ccccc34)CC2)CC1`: the inhibition constant Ki was 0.97 nM in assay [1], 1.97 nM on D(2) dopamine receptor and 0.46 nM in assay [2].
In the case of `CC(C)COC(=O)N[C@H]1CC[C@H](CCN2CCN(c3nsc4ccccc34)CC2)CC1`, the inhibitory constant (Ki) in assay [2] was 0.093 nM.
As to `O=C(N[C@H]1CC[C@H](CCN2CCN(c3nsc4ccccc34)CC2)CC1)Oc1ccc([N+](=O)[O-])cc1`, the inhibition constant Ki on D(2) dopamine receptor stood at 12.4 nM; in assay [2], 7.12 nM.
`O=C(N[C@H]1CC[C@H](CCN2CCN(c3nsc4ccccc34)CC2)CC1)OCc1ccccc1`: the Ki worked out at 0.79 nM in assay [1], 1.6 nM at D(2) dopamine receptor and 0.061 nM in assay [2].
Turning to `Cc1ccccc1OC(=O)N[C@H]1CC[C@H](CCN2CCN(c3nsc4ccccc34)CC2)CC1`, in assay [2], the Ki is 8.49 nM.
`COC(=O)N[C@H]1CC[C@@H](CCN2CCN(c3nsc4ccccc34)CC2)CC1`: the results for the Ki in assay [1] and in assay [2] were 2.55 nM and 0.087 nM, respectively.
With `O=C(N[C@H]1CC[C@H](CCN2CCN(c3nsc4ccccc34)CC2)CC1)Oc1ccc(Cl)cc1`, in assay [2], the inhibitory constant (Ki) was found to be 11.6 nM.
Regarding `O=C(N[C@H]1CC[C@H](CCN2CCN(c3nsc4ccccc34)CC2)CC1)OC1CC1`, the inhibition constant (Ki) in assay [1] was 3.95 nM; at D(2) dopamine receptor it was 3.26 nM; in assay [2], 1.81 nM.
Consider `O=C(N[C@H]1CC[C@H](CCN2CCN(c3nsc4ccccc34)CC2)CC1)Oc1ccccc1`, for which the Ki in assay [2] was found to be 0.74 nM.
As for `O=C(N[C@H]1CC[C@@H](CCN2CCN(c3nsc4ccccc34)CC2)CC1)OCc1ccccc1`, the inhibition constant (Ki) was determined as 2.14 nM in assay [1], 0.98 nM at D(2) dopamine receptor and 1.03 nM in assay [2].
`COc1cccc(OC(=O)N[C@H]2CC[C@H](CCN3CCN(c4nsc5ccccc45)CC3)CC2)c1`: the inhibitory constant (Ki) in assay [2] was 1.05 nM.
As to `O=C(N[C@H]1CC[C@H](CCN2CCN(c3nsc4ccccc34)CC2)CC1)OC1CCCCC1`, the Ki in assay [1] was 1.69 nM; at D(2) dopamine receptor it was 11.8 nM; in assay [2] it was 4.3 nM.
`COC(=O)N[C@H]1CC[C@H](CCN2CCN(c3nsc4ccccc34)CC2)CC1`: in assay [2], the Ki came out at 0.1 nM.
